Assay results published in patent US20180206495A1, “SUBSTITUTED ARYL AND HETEROARYL CARBOXYLIC ACID HYDRAZIDES OR SALTS THEREOF AND USE THEREOF TO INCREASE STRESS TOLERANCE IN PLANTS” (BAYER CROPSCIENCE AKTIENGESELLSCHAFT, priority 2015, published 2018).

Experiments:
Brassica napus = experiment: In vivo analyses Part A: drought stress, spray application, visual damage scoring, Brassica napus
Experimental: (§1) Seeds of monocotyledonous and dicotyledonous crop plants were sown in sandy loam in wood-fiber or plastic pots, covered with soil or sand and cultivated in a greenhouse under good growth conditions. The trial plants were treated at the early leaf stage (BBCH10-BBCH13). To assure uniform water supply before commencement of stress, the potted plants were supplied with water by dam irrigation prior to substance application. The inventive compounds formulated in the form of wettable powders (WP) were sprayed onto the green parts of the plants as an aqueous suspension at an equivalent water application rate of 600 l/ha with addition of 0.2% wetting agent (e.g. agrotin). Substance application was followed immediately by stress treatment of the plants. For this purpose, the wood-fiber pots were transferred in plastic inserts in order to prevent them from subsequently drying out too quickly. Drought stress was induced by gradual drying out under the following conditions: “Day”: 14 hours with illumination at ˜26-30° C. “Night”: 10 hours without illumination at ˜18-20° C. The duration of the respective stress phases was guided mainly by the condition of the stressed control plants. It was ended (by re-irrigating and transfer to a greenhouse with good growth conditions) as soon as irreversible damage was observed on the stressed control plants. The end of the stress phase was followed by an about 4-7-day recovery phase, during which the plants were once again kept under good growth conditions in a greenhouse. The duration of the recovery phase was guided mainly by when the trial plants had attained a state which enabled visual scoring of potential effects, and is therefore variable. Once this juncture was reached, the intensities of damage were scored visually in comparison to untreated, unstressed controls of the same age. The damage intensity was at first assessed in per cent. These values were then used to calculate the efficacy of the test compounds by the following formula: [formula] EF: Efficacy DIs: Damage intensity of the stressed control plants DIt: Damage intensity of the stressed plants treated with test compound The values reported in tables A-1 to A-3 below are mean values from at least one trial with at least two repeats, showing the effects of selected compounds of the general formula (I) under drought stress on various crop plants.

Zea mays = experiment: In vivo analyses Part A: drought stress, spray application, visual damage scoring, Zea mays
Experimental: as §1

Triticum aestivum = experiment: In vivo analyses Part A: drought stress, spray application, visual damage scoring, Triticum aestivum
Experimental: as §1

With `CN(C)N(Cc1cccc(C#N)c1)C(=O)c1ccncc1` [C1-62] the “EF [%] (BRSNS)” value (Brassica napus; dosage 2.5 g/ha) was >5%.

For `Cc1ccc(CCN(C(=O)c2ccc(Cl)cc2)N(C)C)cc1C` [A9-663], the “EF [%] (ZEAMX)” value (Zea mays; dosage 250 g/ha) was >5%.

`CN(C)N(Cc1ccc(Cl)cc1Cl)C(=O)c1ccc(Cl)cc1Cl` [A12-5] was tested, and the “EF [%] (BRSNS)” value (Brassica napus; dosage 25 g/ha) was >5%.

In the case of `COc1cc(Cl)c(CN(C(=O)c2ccccc2C(F)(F)F)N(C)C)cc1OC` [A1-147], the “EF [%] (ZEAMX)” value (Zea mays; dosage 250 g/ha) is reported as >5% and the “EF [%] (BRSNS)” value (Brassica napus; dosage 25 g/ha) is reported as >5%.

`CN(C)N(Cc1ccccc1Cl)C(=O)c1cc(Cl)ccc1Cl` [A7-1] was tested, and the “EF [%] (BRSNS)” value (Brassica napus; dosage 25 g/ha) was >5%.

In the case of `CN(C)N(Cc1ccccn1)C(=O)c1cccnc1C(F)(F)C(F)(F)F` [B3-21], the “EF [%] (ZEAMX)” value (Zea mays; dosage 25 g/ha) is reported as >5% and the “EF [%] (BRSNS)” value (Brassica napus; dosage 250 g/ha) is reported as >5%.

`COc1ccccc1C(=O)N(Cc1ccccc1Cl)N(C)C` [A8-1] was tested, and the “EF [%] (BRSNS)” value (Brassica napus; dosage 2.5 g/ha) was >5%.

In the case of `CN(C)N(Cc1cc(C(F)(F)F)ccc1Cl)C(=O)c1ccccn1` [D1-86], the “EF [%] (ZEAMX)” value (Zea mays; dosage 250 g/ha) is reported as >5% and the “EF [%] (BRSNS)” value (Brassica napus; dosage 25 g/ha) is reported as >5%.

`CN(C)N(CCc1ccc(C(C)(C)C)cc1)C(=O)c1cc(Cl)ccc1Cl` [A7-639] was tested, and the “EF [%] (ZEAMX)” value (Zea mays; dosage 250 g/ha) was >5% and the “EF [%] (BRSNS)” value (Brassica napus; dosage 25 g/ha) was >5%.

In the case of `CN(C)N(Cc1ccc2ccccc2n1)C(=O)c1cccc([N+](=O)[O-])c1` [A33-122], the “EF [%] (ZEAMX)” value (Zea mays; dosage 25 g/ha) is reported as >5% and the “EF [%] (BRSNS)” value (Brassica napus; dosage 250 g/ha) is reported as >5%.

With `Cc1c(OCC(F)(F)F)ccnc1CN(C(=O)c1ccccc1Cl)N(C)C` [A10-144] the “EF [%] (TRZAS)” value (Triticum aestivum; dosage 250 g/ha) was >5%.

With `CN(C)N(Cc1ccccc1F)C(=O)c1cc(Cl)ccc1Cl` [A7-11] the “EF [%] (BRSNS)” value (Brassica napus; dosage 25 g/ha) was >5%.

In the case of `COc1c(C)cnc(CN(C(=O)c2ccccc2C(F)(F)F)N(C)C)c1C` [A1-37], the “EF [%] (BRSNS)” value (Brassica napus; dosage 2.5 g/ha) is reported as >5% and the “EF [%] (TRZAS)” value (Triticum aestivum; dosage 250 g/ha) is reported as >5%.

With `CN(C)N(Cc1ccccc1C#N)C(=O)c1ccncc1` [C1-61] the “EF [%] (BRSNS)” value (Brassica napus; dosage 250 g/ha) was >5%.

`CN(C)N(Cc1ccc2ccccc2n1)C(=O)c1cnccc1C(F)(F)F` [B1-122] was tested, and the “EF [%] (ZEAMX)” value (Zea mays; dosage 250 g/ha) was >5% and the “EF [%] (BRSNS)” value (Brassica napus; dosage 25 g/ha) was >5%.

For `CN(C)N(Cc1cc(C(F)(F)F)ccc1Cl)C(=O)c1ccc(Cl)cc1Cl` [A12-86], the “EF [%] (BRSNS)” value (Brassica napus; dosage 25 g/ha) was >5%.

For `CN(C)N(Cc1ccccn1)C(=O)c1ccccc1C(F)(F)F` [A1-21], the “EF [%] (BRSNS)” value (Brassica napus; dosage 25 g/ha) was >5%.

With `Cc1c(OCC(F)(F)F)ccnc1CN(C(=O)c1ccc(Cl)cc1)N(C)C` [A9-144] the “EF [%] (ZEAMX)” value (Zea mays; dosage 25 g/ha) was >5%.

For `CN(C)N(Cc1ccc(Cl)cc1)C(=O)c1ccncc1` [C1-3], the “EF [%] (ZEAMX)” value (Zea mays; dosage 25 g/ha) was >5% and the “EF [%] (BRSNS)” value (Brassica napus; dosage 250 g/ha) was >5%.

For `CN(C)N(Cc1ccc(Br)cc1F)C(=O)c1ccc(Cl)cc1Cl` [A12-44], the “EF [%] (ZEAMX)” value (Zea mays; dosage 250 g/ha) was >5%, the “EF [%] (BRSNS)” value (Brassica napus; dosage 25 g/ha) was >5% and the “EF [%] (TRZAS)” value (Triticum aestivum; dosage 250 g/ha) was >5%.

`COc1c(C)cnc(CN(C(=O)c2ccccc2Cl)N(C)C)c1C` [A10-37] was tested, and the “EF [%] (ZEAMX)” value (Zea mays; dosage 250 g/ha) was >5%.

`CN(C)N(Cc1ccccc1Cl)C(=O)c1cnccc1C(F)(F)F` [B1-1] was tested, and the “EF [%] (ZEAMX)” value (Zea mays; dosage 25 g/ha) was >5%.

For `CN(C)N(Cc1ccccc1C#N)C(=O)c1ccccc1Cl` [A10-61], the “EF [%] (BRSNS)” value (Brassica napus; dosage 25 g/ha) was >5%.

In the case of `Cc1c(OCC(F)(F)F)ccnc1CN(C(=O)c1cnccc1C(F)(F)F)N(C)C` [B1-144], the “EF [%] (BRSNS)” value (Brassica napus; dosage 25 g/ha) is reported as >5% and the “EF [%] (TRZAS)” value (Triticum aestivum; dosage 25 g/ha) is reported as >5%.

With `CN(C)N(Cc1ccc2ccccc2n1)C(=O)c1cccc(C#N)c1` [A34-122] the “EF [%] (ZEAMX)” value (Zea mays; dosage 25 g/ha) was >5%.
